This is an account of results in PubChem BioAssay (NCI).

Holding throughout (experiment): inhibition of tumour cell growth, NCI panel, 48 h
In experiment [1] the test system is HCC-2998 colon.
The subject of experiment [2] is MOLT-4 leukemia.
The test system of experiment [3] is TK-10 renal.
Experiment [4] relates to MCF7 breast.
The test system of experiment [5] is RPMI-8226 leukemia.
Experiment [6] has as its system PC-3 prostate.
For experiment [7], the system named is LOX IMVI melanoma.
Experiment [8] deals with SNB-19 CNS.
The test system of experiment [9] is MALME-3M melanoma.
For experiment [10], the system named is UACC-257 melanoma.
Experiment [11] deals with SF-295 CNS.
The test system of experiment [12] is 786-0 renal.
Experiment [13] has as its system COLO 205 colon.
The subject of experiment [14] is NCI-H23 lung.
Experiment [15] concerns OVCAR-5 ovarian.
In experiment [16] the test system is SF-539 CNS.
The test system of experiment [17] is A549 NSCLC.
Experiment [18] relates to HCT-15 colon.
Experiment [19] deals with MDA-N.

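All cell lines were grown in 96-well plates and treated with compound for 48 hours. At the TGI there is no net growth.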 Where only a bound is given, the exact number is not on record here.

In the case of `O=C1C(Cl)=CC2(C=C1Cl)CCN=c1c(O)c3c(c(O)c12)=NC=N3`, the TGI is greater than 100 µM in experiment [1]; greater than 100 µM in experiment [2]; greater than 100 µM in experiment [3]; 48.9 µM in experiment [4]; 80.9 µM in experiment [5]; greater than 100 µM in experiment [6]. Further, the TGI in experiment [7] was 50.4 µM; in experiment [8] it was greater than 100 µM; in [9] it was 43.4 µM; in [10], 52.4 µM; in [11], greater than 100 µM; in experiment [12] it was greater than 100 µM. For the same molecule, the TGI in experiment [13] is 46.7 µM; in experiment [14], 82.5 µM; in experiment [15], greater than 100 µM; in [16] it was 88.4 µM; in experiment [17], greater than 100 µM; in [18], greater than 100 µM. The TGI in [19] came to 33.6 µM.

Regarding `COc1ccc(OC/C(N)=N/NC(=O)c2ccncc2)cc1`, the TGI in experiment [1], in experiment [2], in experiment [3], in experiment [4], in experiment [5] and in [6] was greater than 100 µM in each case. In addition, the TGI in experiment [7], in experiment [8], in experiment [9], in [10], in experiment [11] and in [12] was greater than 100 µM each time. Further, the TGI in experiment [13], in experiment [14], in experiment [15], in experiment [16], in [17] and in [18] was greater than 100 µM throughout. The molecule further had a TGI in experiment [19] greater than 100 µM.

With `O=C(/C=C/c1ccccc1)CCN1CCCCC1`, the TGI is greater than 100 µM in [1]; 63.1 µM in experiment [2]; greater than 100 µM in [3]; 89.9 µM in experiment [4]; 66.1 µM in experiment [5]; greater than 100 µM in experiment [6]. For the same molecule, the TGI in experiment [7] is 37.6 µM; in experiment [8] it was greater than 100 µM; in experiment [9], greater than 100 µM; in [10] it was greater than 100 µM; in experiment [11], greater than 100 µM; in experiment [12], 44.4 µM. The TGI in experiment [13] is 38.4 µM; in experiment [14], 89.8 µM; in experiment [15] it was greater than 100 µM; in experiment [16], 37.7 µM; in experiment [17] it was greater than 100 µM; in experiment [18] it was greater than 100 µM. In addition, the TGI in [19] came out at 60.1 µM.

In the case of `Cc1nc2ccccc2n1Cc1nnc(-c2ccccc2)o1`, the TGI in experiment [1], in experiment [2], in experiment [3], in experiment [4], in experiment [5] and in [6] was greater than 100 µM each time. Further, the TGI in [7], in experiment [8], in experiment [9], in [10], in experiment [11] and in experiment [12] was greater than 100 µM each time. The TGI in experiment [13], in [14], in experiment [15], in [16], in [17] and in experiment [18] was greater than 100 µM throughout. In experiment [19], this molecule showed a TGI greater than 100 µM.

`COc1ccc(NC(=S)c2ccc([N+](=O)[O-])o2)cc1`: the TGI was found to be 3 µM in [1]; 13.9 µM in experiment [2]; 9.84 µM in experiment [3]; 4.42 µM in experiment [4]; 4.72 µM in experiment [5]; 2.97 µM in experiment [6]. In addition, the TGI in experiment [7] amounted to 4.33 µM; in experiment [8] it was 11.7 µM; in experiment [9], 7.83 µM; in experiment [10] it was 7.2 µM; in [11] it was 10.6 µM; in experiment [12], 4.99 µM. The TGI in [13] stood at 2.75 µM; in [14] it was 5.52 µM; in [15] it was 9.53 µM; in experiment [16], 0.549 µM; in [17], 11.1 µM; in [18] it was 3.56 µM. Besides, in [19], the TGI is 6.11 µM.

For the molecule `Clc1ccc(C(OCn2ccnc2)c2nc3ccccc3[nH]2)c(Cl)c1` (stereo not given), the TGI is greater than 100 µM in experiment [1]; greater than 100 µM in [2]; greater than 100 µM in experiment [3]; greater than 100 µM in [4]; 92.4 µM in experiment [5]; greater than 100 µM in experiment [6]. Besides, the TGI in experiment [7], in experiment [8], in experiment [9], in experiment [10], in [11] and in experiment [12] was greater than 100 µM in each case. Also, the TGI in experiment [13], in experiment [14], in experiment [15], in [16], in experiment [17] and in experiment [18] was greater than 100 µM throughout. The same molecule registered a TGI in experiment [19] greater than 100 µM.

For the molecule `O=c1oc2ccccc2c(-c2ccc(O)cc2)c1Oc1ccccc1`, the TGI in experiment [1] was 19.8 µM; in experiment [2], greater than 100 µM; in [3] it was greater than 96.7 µM; in experiment [4] it was greater than 100 µM; in [5], greater than 100 µM; in [6], greater than 96.1 µM. Also, the TGI in experiment [7] is greater than 31.6 µM; in experiment [8] it was 50.6 µM; in experiment [9], 9.26 µM; in experiment [10], 30.7 µM; in experiment [11], 53.6 µM; in experiment [12], 66.4 µM. The TGI in experiment [13] is greater than 69.6 µM; in experiment [14], 18.7 µM; in experiment [15], 70 µM; in experiment [16], greater than 75.5 µM; in experiment [17], greater than 66.9 µM; in experiment [18], greater than 70 µM. In experiment [19], the TGI is 58.5 µM.

Regarding `COc1cc(Nc2cc(Cl)cc(Cl)c2)nc(N)n1`, the TGI is 34 µM in [1]; 51 µM in experiment [2]; 53.9 µM in experiment [3]; 91.4 µM in experiment [4]; 56.5 µM in experiment [5]; 59.6 µM in experiment [6]. In addition, the TGI in experiment [7] was found to be 32.2 µM; in [8], 64.8 µM; in [9], 40.4 µM; in experiment [10], 38.8 µM; in [11] it was 38.3 µM; in [12] it was 31.8 µM. For the same molecule, the TGI in experiment [13] is 44.2 µM; in experiment [14], 49.2 µM; in experiment [15] it was greater than 100 µM; in experiment [16] it was 33 µM; in [17], 48.5 µM; in experiment [18] it was 36.5 µM. Further, the TGI in experiment [19] is 62.3 µM.

Turning to `Cc1nc2ccc(S(=O)(=O)O)cc2c(=O)n1-c1ccc(C(=O)NN2C(=O)C(Cl)C2c2cccs2)cc1` (stereo not given), the TGI in experiment [1], in experiment [2], in [3], in [4], in [5] and in experiment [6] was greater than 100 µM throughout. Moreover, the TGI in experiment [7], in experiment [8], in [9], in [10], in experiment [11] and in experiment [12] was greater than 100 µM each time. For the same molecule, the TGI in [13], in experiment [14], in [15], in [16], in [17] and in experiment [18] was greater than 100 µM throughout. The same molecule showed a TGI in experiment [19] of 80.2 µM.

`Cc1ccc2c(=O)cc(-c3cc(C)sc3C)[nH]c2n1`: the TGI is 36.3 µM in [1]; greater than 77.6 µM in [2]; greater than 100 µM in experiment [3]; greater than 100 µM in experiment [4]; greater than 20.5 µM in experiment [5]; greater than 30.2 µM in experiment [6]. For the same molecule, the TGI in experiment [7] is greater than 58.8 µM; in [8] it was greater than 100 µM; in experiment [9] it was greater than 100 µM; in experiment [10] it was greater than 100 µM; in [11] it was 7.54 µM; in experiment [12], greater than 100 µM. Moreover, the TGI was 7.52 µM in experiment [13]; greater than 24 µM in experiment [14]; greater than 100 µM in [15]; 6.25 µM in experiment [16]; greater than 39.3 µM in [17]; greater than 100 µM in experiment [18]. The TGI in experiment [19] turned out to be 1.92 µM.

`COC(=O)C(=O)C(C(=O)C(=O)Nc1cccc(OC)c1)c1nc2ccc(Cl)cc2[nH]c1=O` (stereo not given): the TGI in experiment [1], in [2], in experiment [3], in experiment [4], in experiment [5] and in experiment [6] was greater than 100 µM each time. The TGI in [7], in [8], in experiment [9], in experiment [10], in [11] and in [12] was greater than 100 µM in each case. Besides, the TGI in experiment [13], in [14], in experiment [15], in experiment [16], in experiment [17] and in experiment [18] was greater than 100 µM in each case. In addition, the TGI in [19] is greater than 100 µM.

Turning to `c1ccc(C(NC2=NCCO2)C2CC2)cc1` (stereo not given), the TGI in [1], in [2], in experiment [3], in [4], in experiment [5] and in experiment [6] was greater than 100 µM in each case. For the same molecule, the TGI in experiment [7], in [8], in experiment [9], in [10], in [11] and in experiment [12] was greater than 100 µM each time. The TGI in experiment [13], in experiment [14], in [15], in experiment [16], in [17] and in experiment [18] was greater than 100 µM in each case. In experiment [19], this molecule gave a TGI greater than 100 µM.

As to `O=C1CSC(c2cc3cc(Br)ccc3nc2Cl)N1c1ccc(Cl)cc1` (stereo not given), the TGI in experiment [1] was 41.7 µM; in [2] it was 47.9 µM; in experiment [3] it was 70.7 µM; in experiment [4], 67.6 µM; in [5], greater than 100 µM; in experiment [6] it was greater than 100 µM. Also, the TGI in [7] was 33.7 µM; in experiment [8], greater than 100 µM; in experiment [9], 75.8 µM; in experiment [10] it was 42.5 µM; in experiment [11] it was 37.6 µM; in experiment [12], greater than 100 µM. Moreover, the TGI was 41.2 µM in experiment [13]; greater than 100 µM in experiment [14]; greater than 100 µM in experiment [15]; 37.8 µM in experiment [16]; greater than 100 µM in experiment [17]; 88.8 µM in [18]. The TGI in experiment [19] is greater than 100 µM.

As to `CC(C)(C)OC(=O)/N=C/c1c(O)c2ccccc2oc1=O`, the TGI is greater than 100 µM in experiment [1]; greater than 100 µM in [2]; 66.7 µM in experiment [3]; greater than 100 µM in [4]; greater than 100 µM in experiment [5]; greater than 100 µM in experiment [6]. Besides, the TGI in experiment [7], in [8], in experiment [9], in experiment [10], in experiment [11] and in experiment [12] was greater than 100 µM each time. The TGI in experiment [13], in experiment [14], in experiment [15], in experiment [16], in experiment [17] and in [18] was greater than 100 µM in each case. This molecule returned a TGI in [19] greater than 100 µM.

As to `Cc1nc2ccc(N=Nc3c(C)noc3C)cc2[nH]1`, the TGI in experiment [1] is greater than 100 µM; in experiment [2], 58.5 µM; in experiment [3] it was greater than 100 µM; in experiment [4], 84 µM; in experiment [5] it was 92.4 µM; in experiment [6], greater than 100 µM. Besides, the TGI in [7] is 39.2 µM; in experiment [8], greater than 100 µM; in experiment [9], greater than 100 µM; in experiment [10] it was greater than 100 µM; in [11], greater than 100 µM; in [12], greater than 100 µM. The TGI is 34.5 µM in [13]; greater than 100 µM in experiment [14]; greater than 100 µM in [15]; 70.7 µM in [16]; greater than 100 µM in experiment [17]; greater than 100 µM in experiment [18]. The molecule also came in with a TGI in experiment [19] greater than 100 µM.
